# “And” between values parts separate entries of the source, which are not always exact repeats. Equal values may be shown once.
# How the values were obtained:
# [1] = Log D determination (octanol/PBS pH 7.4); assay type: physicochemical; details: for logD: octanol/PBS pH 7.4, n = 3; for reduction of log D versus benzodioxole counterpart: [18F]d4 vs [18F]d2, [18F]d8 vs [18F]d6
# Experimental: To a solution of [^18F]d2, [^18F]d4, [^18F]d6, and [^18F]d8 (0.5–1.0 MBq) in 0.5 mL octanol, 0.5 mL PBS (pH 7.4) was added in a 1.5 mL Eppendorf vial. The vials were vigorously vortexed for 10 min. To achieve efficient phase separation, the vials were centrifuged for 10 min at 13,000 rpm in a Heraeus Biofuge 13 centrifuge. Aliquots (100 μL) of the aqueous and the octanol phase were collected carefully and the amount radioactivity in the respective samples was quantified using a γ-counter. The log octanol/PBS values were calculated from the means of n = 3 separate determinations.
# [2] = In vitro plasma protein binding (ultrafiltration); assay type: in vitro ADME, human; details: for fp (free plasma fraction): human plasma, ultrafiltration, n = 3; for fp relative to benzodioxole counterpart: [18F]d8 vs [18F]d6, [18F]d4 vs [18F]d2
# Experimental: To estimate the free fraction (fp) of the radioligands in the plasma, an ultrafiltration method was used. Approximately 1 MBq of [^18F]d2, [^18F]d4, [^18F]d6, and [^18F]d8 were added to 450 μL of Seronorm Human plasma (Invicon GmbH, Munich, Germany), and the mixture was incubated for 10 min. After incubation, 150 μL of plasma was transferred into 3 ultrafiltration tubes (Centrifree YM-30; cutoff 30,000 MW; Millipore) and centrifuged at 8,000 rpm for 10 min. Equal aliquots of the ultrafiltrate (Cfree), and of the plasma (Ctotal) were counted for their radioactivity with a γ-counter. The fp of the radioligands was calculated as fp = Cfree/Ctotal (n = 3).
# [3] = In vivo PET-MRI dynamic scan with biodistribution; design: species or system healthy C57BL/6J mice; details: healthy mice, i.v., biodistribution after PET dynamic scan
# Experimental: For PET imaging [^18F]d6 and [^18F]d8 were prepared as described in section “Biodistribution Experiments” and ∼11 MBq was injected via the caudal vein in the mice (n = 3 for each tracer). PET was recorded on nanoScan PET/MRI (Mediso Medical Imaging System) under isoflurane anesthesia. PET was continuously recorded in list mode for 120 min and consisted of 36 frames (1 × 60 s; 30 × 10 s; 1 × 600 s; 1 × 900 s; and 3 × 1800 s) while anesthesia was maintained. Data were reconstructed using Nucline nanoScan 3.00.021.0000 software, employing a three-dimensional ordered subset expectation maximum (OSEM3D) algorithm without a scatter and attenuation correction. Tissue time–activity curves (TACs) were obtained by projecting the defined ROI onto all frames of the dynamic PET scans. At 2 h after the PET dynamic scan, the mice were promptly euthanized, the rest of the protocol followed as already described in section “Biodistribution Experiments.”
# [4] = Biodistribution experiments; assay type: in vivo, healthy C57BL/6J mice; details: for brain uptake at 5 min p.i. / brain uptake at 60 min p.i.: i.v.
# Experimental: The ethanol solutions containing the tracers [^18F]d2, [^18F]d4, [^18F]d6, and [^18F]d8 were diluted with DMSO, Tween-20, and saline added consecutively to achieve a final concentration of 2.4, 2.4, and 0.4% of ethanol, DMSO, and Tween-20, respectively. The pH was adjusted with 0.05 N aqueous sodium hydroxide solution. 1.5–2.5 MBq of [^18F]d2, [^18F]d4, [^18F]d6, and [^18F]d8 prepared in the above solvent mixture were administered to the mice via the caudal vein under isoflurane anesthesia. The mice were sacrificed at 5 and 60 min p.i. The following organs/tissues were extracted: blood, heart, lung, liver, stomach, pancreas, colon, small intestine, kidney, muscle, bone, tail, and the brain. The radioactivity in the pre-weighed tissue samples was determined using a γ-counter. Data are expressed as a percent of the injected dose per gram tissue (% ID/g; mean ± sd, n = 3).
# tau fibrils = tau fibrils (Homo sapiens, UniProt P10636); experiment: Competition binding assay against [3H]DCVJ, tau fibrils; details: for Ki: vs [3H]DCVJ 20 nM, fibrils 125 nM
# Experimental: (§1) Fixed concentrations (125 nM) of Aβ1–42, tau aggregates, and [^3H]DCVJ (10 and 20 nM, respectively) were used with different concentrations of cold d2, d4, d6, and d8 from 1 to 1,000 nM. The experiment was performed in quadruplicates for each concentration. Further procedures followed the same already described in section “Competition Binding Assays for α-Syn Fibrils.”
# (§2) The binding affinity of [^18F]d2, [^18F]d4, [^18F]d6, and [^18F]d8 to human recombinant α-syn, Aβ, and tau fibrils was assayed in a competition binding assay with non-radioactive ligands d2, d4, d6, and d8 against tritiated 9-(2,2-dicyanovinyl)julolidine (DCVJ) (Figure 3 and Supplementary Material). […] Although being a pan tracer makes DCVJ a less suitable tracer for the in vivo imaging of any of the protein aggregates, it makes it, however, a useful tool for evaluating the usefulness of other ligands as tracers for various proteinopathies in competitive binding experiments, as well as for scanning the fibril-binding sites in a set of in silico blind dockings.
# Recombinant tau monomer was dissolved at 300 µg/mL concentration in 20 mM Tris HCl pH 8.0, 100 mM NaCl, 25 μM low molecular weight heparin, and 0.5 mM DTT. The dissolved peptide was incubated at 37°C for 48 hours with shaking at 900 rpm. To determine the concentration of fibrils, the fibril reaction mixer was centrifuged at 12000 g for 5 min and the fibril pellet was washed 3 times in 20 mM Tris-HCl pH 7.4 to separate fibrils from monomer. Supernatants from all centrifugation steps were combined and the concentration of monomer in the supernatant was determined using BCA assay, alongside a BSA standard curve. The concentration of the fibrils formed was determined by subtracting the amount of tau monomer in the supernatant from initial amount used for fibrillation.
# Aβ1–42 fibrils = target: T1, Aβ1–42 fibrils (Homo sapiens, UniProt P05067); experiment: Competition binding assay against [3H]DCVJ, Aβ1–42 fibrils; details: for Ki: vs [3H]DCVJ 10 nM, fibrils 125 nM
# T1 construct: 1 mg of β-amyloid1−42 peptide was dissolved in 50 μL DMSO
# Experimental: as §1, §2
# 1 mg of β-amyloid1−42 peptide was dissolved in 50 μL DMSO. 925 μL of Milli-Q water was added to the above. Then 25 μL of 1M Tris HCl, pH 7.4 was added to bring the final peptide concentration to 1 mg/mL. The dissolved peptide was then incubated for 30 h at 37°C with shaking at 900 rpm. To determine the concentration of fibrils, the fibril reaction mixer was centrifuged at 12000 g for 5 min and the fibril pellet was washed three times in 20 mM Tris-HCl pH 7.4 to separate fibrils from monomer. Supernatant from all centrifugation steps were combined and the concentration of monomer in the supernatant was determined in a BCA assay, alongside a BSA standard curve. The concentration of the fibrils formed was determined by subtracting the amount of β-amyloid1−42 monomer in the supernatant from initial amount used for fibrillation.
# [5] = target: T2, human recombinant α-syn fibrils (Homo sapiens, UniProt P37840); experiment: Competition binding assay against [3H]DCVJ, α-syn fibrils; details: for selectivity over Aβ and tau aggregates: abstract; for Ki: non-radioactive ligand vs [3H]DCVJ 10 nM, α-syn fibrils 125 nM, 2 h 37°C
# T2 construct: made in house; host or cells: E. coli BL21(DE3), plasmid pET11-D
# Experimental: The competitor reaction was diluted with 20 mM Tris-HCl, pH 7.4 to a final volume of 200 μL per well. After incubation for 2 h at 37°C, the binding mixtures were filtered through a Perkin Elmer GF/B glass filter via a TOMTEC cell harvester and immediately washed three times with 1 mL of deionized water. Filters containing the bound ligands were dried and mixed with 3 mL of Betaplate scint solution (PerkinElmer Life Sciences) and incubated for 2 h before counting in a Wallac 1450 MicroBeta TriLux Liquid Scintillation Counter (PerkinElmer Life Sciences). For the determination of the inhibition constants, data were analyzed using GraphPad Prism software (version 7.0) to obtain IC50 values by fitting the data to the equation Y = bottom + (top - bottom)/(1 + 10(x - log IC50). Ki values were calculated from IC50 values using the equation Ki = IC50/(1 + [radioligand]/Kd).
# as §2
# Purified recombinant α-syn monomer (10 mg/mL) was incubated in PBS, pH 7.4, at 37 °C by shaking at 900 rpm in an Eppendorf Thermomixer for up to 84 hours. To determine the concentration of fibrils, the fibril reaction mixer was centrifuged at 12000 g for 5 min and the fibril pellet was washed 3 times with 20 mM Tris-HCl pH 7.4 to separate fibrils from monomer. Supernatant from all the centrifugation steps were combined and the concentration of monomer in the supernatant was determined using SDS-PAGE. The concentration of the fibrils formed was determined by subtracting the mount of α-syn monomer in the supernatant from initial amount use for fibrillation process.
# [6] = Metabolite experiments (brain and plasma, 20 min p.i.); assay type: in vivo, healthy mice
# Experimental: Tracers [^18F]d6 and [^18F]d8 were prepared as already described above in section “Biodistribution Experiments.” About 80–120 MBq of the tracers were injected via the caudal vein in the mice (n = 3 per tracer). At 20 min p.i., the animals were euthanized, and the needed tissues were extracted and placed on dry ice. To separate plasma from the blood cells, the blood samples were first centrifuged 13,000 rpm for 10 min, then acetonitrile acidified with 1% trifluoroacetic acid (TFA) (10 min, 4°C) was added to the centrifugate to precipitate the plasma proteins, followed by another centrifugation as already described, and ultrafiltration using ultrafiltration tubes (Centrifree YM-30; cutoff 30,000 MW; Millipore). A 10 μL of 1 M DMSO solution of the cold references was added to the centrifugate which was subsequently analyzed by RP-HPLC. The brain was frozen in liquid nitrogen and homogenized with a ball mill. A mixture of acetonitrile and DMSO (5:1) with 1% TFA containing the cold references of the tracers was added to the homogenate and mixed. The suspension was centrifuged. The supernatant was then filtered using ultrafiltration tubes as already described, the resulting filtrate was subsequently analyzed by RP-HPLC.
# T1 sequence (P05067 672-713): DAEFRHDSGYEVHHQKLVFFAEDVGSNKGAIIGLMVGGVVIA
# tau fibrils, sequence (P10636 2-758): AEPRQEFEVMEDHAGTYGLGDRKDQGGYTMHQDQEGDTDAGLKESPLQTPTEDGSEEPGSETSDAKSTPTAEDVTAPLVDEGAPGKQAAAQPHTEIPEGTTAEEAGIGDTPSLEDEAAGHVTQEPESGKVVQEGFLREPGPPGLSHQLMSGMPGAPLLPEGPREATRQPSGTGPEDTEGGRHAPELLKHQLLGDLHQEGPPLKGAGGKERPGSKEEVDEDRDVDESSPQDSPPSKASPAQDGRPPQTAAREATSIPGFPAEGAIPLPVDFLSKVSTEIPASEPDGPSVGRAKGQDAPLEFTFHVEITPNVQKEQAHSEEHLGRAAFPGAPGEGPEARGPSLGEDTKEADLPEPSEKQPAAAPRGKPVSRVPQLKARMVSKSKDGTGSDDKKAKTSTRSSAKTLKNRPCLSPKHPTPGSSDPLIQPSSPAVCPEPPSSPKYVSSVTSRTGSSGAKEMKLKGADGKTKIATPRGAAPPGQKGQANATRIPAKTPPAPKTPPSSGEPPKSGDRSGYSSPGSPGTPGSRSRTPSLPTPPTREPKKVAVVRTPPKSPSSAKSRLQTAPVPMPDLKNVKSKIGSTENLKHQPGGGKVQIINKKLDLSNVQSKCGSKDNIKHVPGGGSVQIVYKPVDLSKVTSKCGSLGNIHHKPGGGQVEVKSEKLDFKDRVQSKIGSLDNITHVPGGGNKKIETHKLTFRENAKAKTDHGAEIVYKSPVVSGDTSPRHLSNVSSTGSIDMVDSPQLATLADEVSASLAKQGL
logD [1],fp (free plasma fraction) [2] [%],"brain uptake at 5 min p.i. ([4]; healthy mice, 5 min p.i.) [%ID/g]",brain uptake at 60 min p.i. ([4]; healthy mice),Ki (tau fibrils) [nM],Ki (Aβ1–42 fibrils) [nM],selectivity over Aβ and tau aggregates [5] [fold],Ki [5] [nM],Compound,also measured
2.8 ± 0.09,0.14 ± 0.02,5.79,1.75 %ID/g,,,,,"[18F]c1ccc(-c2csc(-c3nc(-c4ccc5c(c4)OCO5)cs3)n2)cn1 [[^18F]d6, 4-(benzo [d][1,3]dioxol-5-yl)-4′-(6-[^18F]fluoropyridin-3-yl)-2,2′-bithiazole]",brain uptake at 120 min p.i. [3]: 1.04 %ID/g
,,,,> 1000,386,> 200,0.1,"Fc1ccc(-c2csc(-c3nc(-c4cnc5c(c4)OCO5)cs3)n2)cn1 [d8, 6-(4'-(6-fluoropyridin-3-yl)-[2,2'-bithiazol]-4-yl)-[1,3]dioxolo[4,5-b]pyridine]",
,,,,> 1000,275,> 200,0.66,"COc1ccc(-c2csc(-c3nc(-c4cnc5c(c4)OCO5)cs3)n2)cc1F [d4, 6-(4'-(3-fluoro-4-methoxyphenyl)-[2,2'-bithiazol]-4-yl)-[1,3]dioxolo[4,5-b]pyridine]",
,,,,966,237,> 200,1.21,"Fc1ccc(-c2csc(-c3nc(-c4ccc5c(c4)OCO5)cs3)n2)cn1 [d6, 4-(benzo[d][1,3]dioxol-5-yl)-4'-(6-fluoropyridin-3-yl)-2,2'-bithiazole]",
,,,,,,,,"N#CC(C#N)=Cc1cc2c3c(c1)CCCN3CCC2 [DCVJ, 9-(2,2-dicyanovinyl)julolidine, reference compound]","Kd (tau fibrils; radioligand/pan-amyloid ligand): 15.6 nM; Kd (Aβ1–42 fibrils; radioligand/pan-amyloid ligand, read-out: Kd for Aβ): 8.9 nM; Kd ([5]; radioligand/pan-amyloid ligand): 4.42 nM"
3.1 ± 0.09,0.25 ± 0.01,1.58,1.93 %ID/g,,,,,"COc1ccc(-c2csc(-c3nc(-c4ccc5c(c4)OCO5)cs3)n2)cc1[18F] [[^18F]d2, 4-(benzo[d][1,3]dioxol-5-yl)-4′-(3-[^18F]fluoro-4-methoxyphenyl)-2,2′-bithiazole]",
3 ± 0.04,0.45 ± 0.03,4.63,3.86 %ID/g,,,,,"COc1ccc(-c2csc(-c3nc(-c4cnc5c(c4)OCO5)cs3)n2)cc1[18F] [[^18F]d4, 6-(4′-(3-[^18F]fluoro-4-methoxyphenyl)-[2,2′-bithiazol]-4-yl)-[1,3]dioxolo[4,5-b]pyridine]",reduction of log D versus benzodioxole counterpart [1]: approximately 3.2%; fp relative to benzodioxole counterpart [2]: ~2 times
,,,,> 1000,242,> 200,1.22,"COc1ccc(-c2csc(-c3nc(-c4ccc5c(c4)OCO5)cs3)n2)cc1F [d2, 4-(benzo[d][1,3]dioxol-5-yl)-4'-(3-fluoro-4-methoxyphenyl)-2,2'-bithiazole]","selectivity over Aβ [5]: about 200 fold; selectivity over tau [5]: ~1,000 fold"
2.6 ± 0.09,0.85 ± 0.02,5.13,~1 %ID/g and 1.07 %ID/g,,,,,"[18F]c1ccc(-c2csc(-c3nc(-c4cnc5c(c4)OCO5)cs3)n2)cn1 [[^18F]d8, 6-(4′-(6-[^18F]fluoropyridin-3-yl)-[2,2′-bithiazol]-4-yl)-[1,3]dioxolo[4,5-b]pyridine]","reduction of log D versus benzodioxole counterpart [1]: ~7.1%; brain radiometabolites ([6]; healthy mice): no brain radiometabolites; parent tracer in brain content ([6]; mice, brain homogenate): > 99%; parent tracer remaining in the plasma (in vivo stability) ([6]; mice, plasma): > 60%; fp relative to benzodioxole counterpart [2]: about 6 times; brain uptake at 120 min p.i. [3]: < 1 %ID/g and 0.58 %ID/g; reduction in brain concentration at 5 min p.i. versus [18F]d6 ([4]; healthy mice, 5 min p.i.): 11.4%; brain uptake in mice ([4]; mice, time not stated): > 4 % ID/g"
